Each block holds one compound with its values, some of them ahead of it.
What was measured:
[1] = Dissolution test at pH 6.8 according to USP 26; format: physicochemical
Experimental: A dissolution test is carried out on the microcapsules thus obtained comparing them with anhydrous theophylline in crystalline form.
The dissolution test was performed according to USP 26.
A dissolution test is carried out on the microcapsules obtained in Examples 5 and 6 according to the method previously described for Example 4
Dissolution test was performed according to USP 26
A dissolution test is carried out on the microcapsules thus obtained compared to fluoxetine raw material.

[2] = Dissolution test at pH 1.2 according to USP 26; format: physicochemical; settings: caffeine
Experimental: The microcapsules obtained, when analysed with an electronic microscope (FIG. 3), show a distribution of the particles of the active principle within the polymeric membrane in the form of solid particles that are prevalently disposed at the interface between the polymer and the core. […] Dissolution test was performed according to USP 26.

- Dissolution % at pH 6.8, 5 min ([1]; fluoxetine): 55%
- Dissolution % at pH 6.8, 10 min ([1]; fluoxetine): 75%
- Dissolution % at pH 6.8, 20 min ([1]; 20 min, fluoxetine): 100%
Structure (SMILES): CNCCC(Oc1ccc(C(F)(F)F)cc1)c1ccccc1 (stereo not shown) [Fluoxetine]

- Dissolution % at pH 6.8, 5 min ([1]; theophylline): 65%
- Dissolution % at pH 6.8, 10 min ([1]; theophylline, T2 second head): 100%
- Dissolution % at pH 6.8, 15 min ([1]; 15 min, theophylline): 100%
Structure (SMILES): Cn1c(=O)c2[nH]cnc2n(C)c1=O [Anhydrous Theophylline]

Structure (SMILES): Cn1c(=O)c2c(ncn2C)n(C)c1=O [Caffeine]
- Dissolution % at pH 1.2, 60 min [2]: 100%
